Values quoted from earlier work as cited in article PMC9171782 (Proceedings of the National Academy of Sciences of the …, 2022).

Experiments:
[1] = system: GLP-1R with mutation of W33; conditions: mutation of W33 conserved in human and primate GLP-1Rs
[2] = system: cynomolgus monkeys

| bioavailability (noninjectable formulation in the clinic) | gastrointestinal complaints (such as nausea and vomiting) | Compound | agonist activity at W33-mutated GLP-1R [1] | insulinotropic activity upon oral intake [2] |
| --- | --- | --- | --- | --- |
| – | – | Cc1cc(-n2nc3c(c2-n2ccn(-c4ccc5c(cnn5C)c4F)c2=O)[C@H](C)N(C(=O)c2cc4cc(N5CCOC(C)(C)C5)ccc4n2[C@@]2(c4noc(=O)[nH]4)C[C@@H]2C)CC3)cc(C)c1F [CHU-128] | failed to elicit agonist activity | – |
| – | – | Cc1cc(-n2nc3c(c2-n2ccn(-c4ccc5c(cnn5C)c4F)c2=O)[C@H](C)N(C(=O)c2cc4cc([C@H]5CCOC(C)(C)C5)ccc4n2[C@@]2(c4noc(=O)[nH]4)C[C@@H]2C)CC3)cc(C)c1F [LY3502970] | failed to elicit agonist activity | demonstrated |
| – | – | N#Cc1ccc(COc2cccc(C3CCN(Cc4nc5ccc(C(=O)O)cc5n4C[C@@H]4CCO4)CC3)n2)c(F)c1 [PF-06882961] | failed to elicit agonist activity | demonstrated |
| – | – | N#Cc1ccc(COc2cccc(C3=CCN(Cc4nc5ccc(C(=O)O)nc5n4C[C@@H]4CCO4)CC3)n2)c(F)c1 [RGT1383] | failed to elicit agonist activity | – |
| low bioavailability | frequent gastrointestinal complaints | Semaglutide | – | – |
